Results reported in patent publication US8168568B1, “Combinatorial therapy for protein signaling diseases” (The United States of America, as represented by the …, priority 2003, dated 2012).

Key:
Assay type in all cases: cell-based, human
[1] = tested on: EGFR; assay: EGFR activation time course by reverse phase protein array; settings: for EGFR receptor phosphorylation: time course experiments, 100 ng/ml EGF, 10 μM PGE2, or 25 ng/ml TGF-α
Description: For the time course assays, colon cancer cells were plated in 24-well plates (1×10e5 cells/well), grown to 80% confluency, and serum-starved for 24 hours. […] Unstimulated cells were used as a control for basal activity. To assess TGF-inhibition, cells were pretreated with 100 ng/ml neutralizing TGF-α antibody for 1 hour before stimulation. […] To harvest cells at each timepoint, a number of cells were removed from wells by gentle scraping and suspended in 100 μL of heated SDS sample buffer (50% Tissue Protein Extraction Reagent, 48% 2× Tris-Glycine SDS Sample Buffer and 2% β-Mercaptoethanol) containing 10 μL of protease inhibitor cocktail per ml of lysate. Cells were immediately transferred to a chilled tube.
The reverse-phase protein array were as previously described (Paweletz et al). Briefly, cell lysates were subjected to one freeze/thaw cycle followed by vigorous vortexing to ensure complete liberation of proteins from the cytosol and the cell membrane. Immediately prior to spotting onto nitrocellulose slides, the samples were boiled for 5 minutes to ensure complete denaturation. Samples were spun at high speed in a microcentrifuge to remove any remaining cellular debris. Nanoliter amounts of the samples were arrayed onto nitrocellulose coated slides (Schleicher and Schuell Bioscience Inc., Keene, N.H.). Each sample was spotted nine times to form a “square” pattern consisting of three dilutions, left to right (neat, 1:2, 1:4), and three replicates of each dilution, top to bottom. Sample buffer alone was spotted as a negative control.
Slides were prepared for signal development by incubating for 10 minutes in a 10% solution of Mild Re-Blot Plus (Chemicon Intl, Temecula, Calif.) to expose antigenic sites embedded in the nitrocellulose. This was followed by two 5-minute washes in PBS and incubation in a casein-based blocking solution (Applied Biosystems, Foster City, Calif.) for at least 1 hour. Signal was developed using an automated staining system based on avidin/biotin and peroxidase methodologies (DakoCytomation, Carpinteria, Calif.). Staining is completed by a 5-minute incubation with 3,3′diaminobenzidine tetrahydrochloride (DAB) which results in a brown-colored precipitate at the antigen site. After signal development, slides were scanned on an Epson flatbed scanner at 1200 dpi. Scanned images (saved as an inverted grayscale TIFF file in Adobe Photoshop version 5.5) were analyzed with ImageQuant version 5.2 software (Molecular Dynamics, Amersham, UK). The spot intensity after background correction was proportional to the concentration of the target protein. […]
Activation is expressed as the relative intensity of stimulated cells compared with unstimulated cells on reverse phase protein microarray. […]

[2] = tested on: COX-2 protein; assay: COX-2 protein expression by reverse phase protein array and Western blot; settings: colon cancer cells, every 24 hours over 72 hours; data not shown
Description: Lysates that were analyzed by Western blot were evaluated for protein concentration with the BCA Protein Assay Kit (Pierce, Rockford, Ill.). Details of Western analyses are well known. Briefly, equal amounts of proteins were fractionated on 4-20% SDS-PAGE gels and transferred to PVDF membranes. After sequential incubations with primary antibodies and peroxidase-conjugated goat anti-rabbit antibodies (Tropix, Bedford, Mass.), signal was developed using an enhanced chemiluminescent staining system (Tropix, Bedford, Mass.). Protein loading was normalized for phospho- and nonphospho-proteins with the total self-protein and β-actin, respectively.
Protein loading was controlled for by expressing COX-2 protein relative to β-actin.

[3] = tested on: EGF stimulated ATCC CCL-250 cancer cells; assay: 10 day colony growth bioassay; settings: EGF stimulated CCL-250, FIG. 9
[4] = tested on: EGFr signaling pathway; assay: Reverse phase protein microarray of EGFr pathway nodes in EGF-stimulated colon cancer cells treated with kinase inhibitors; settings: CCL-250 cells, drug treatment 30 minutes, then EGF 0.1 μg/mL; FIG. 6A
Description: The epidermal growth factor receptor (EGFr) signaling pathway, which is a well-characterized pathway where interdependence is already known, was investigated. […]. […] In these experiments, colon cancer cells, ATCC CCL-250, which over-express EGFr 25-75% of the time, were cultured. […] Impact of drug compounds on the pathway was evaluated by treating the cells with a drug compound or a combination of drug compounds for 30 minutes. […] Cells were then scraped from the bottom surface of the wells using a pipet tip and placed into mini-centrifuge tubes. The lysates were then vortexed, boiled for 5 minutes, and centrifuged for 20 minutes at 14,000 rpm. The lysates were arrayed using the reverse phase microarray techniques described in Paweletz et al. […] In contrast to forward-phase protein arrays that immobilize the probe, the reverse phase protein array immobilizes the whole repertoire of patient proteins (e.g. by a nitrocellulose substrate) that represent the state of individual tissue cell populations. Probes are then applied to the immobilized proteins. […] The phospho-antibodies bind to the phosphorylated, or activated, form of the protein. The other antibody binds to and is used to determine the total amount of the protein in the sample. Using the values from these two antibodies, the relative activation of that proteins may be calculated as the ratio of phosphorylated protein to total protein.

[5] = tested on: c-erbB1, MEK, and ERK kinases; assay: Kinase substrate array time course with and without MEK inhibitor; settings: CCL250, 10 uM pretreatment 1 hour, 100 ng/ml EGF; FIG. 18B
Description: Separate aliquots at a series of EGF post treatment time intervals were taken and cell lysates were prepared for kinase substrate array analysis.
To determine if this technology can capture the time-course of linked kinase network events, a series of known connected phosphorylation substrates were analyzed: epidermal growth factor receptor (c-erbB1), MEK, and ERK kinases using a colon cancer cell line (CCL250) with over-expressed c-erbB1 receptor levels. […] When these events are analyzed by reverse phase array, both ERK and MEK phosphorylation show a coordinately linked kinetic profile which is expected since ERK is a direct substrate of MEK kinase (FIG. 18A). […] Phosphorylation of kinase substrates is a transient event, as phosphatases promptly dephosphorylate the substrate as the cascade continues.

EGFR receptor phosphorylation [1] | Compound | shunting via the CREB node (relative expression of CREB) [4] | other results
can be induced | TGF-alpha: EGFR ligand used as stimulus | – | –
– | NC(=O)c1nnn(Cc2cc(Cl)c(C(=O)c3ccc(Cl)cc3)c(Cl)c2)c1N [CAI, carboxyamidotriazole] | – | inhibition of cell proliferation [3]: no significant-growth inhibition
– | COc1cc2ncnc(Nc3cccc(Cl)c3)c2cc1OC [AG1478, 4-(3-chloroanilino)-6,7-dimethoxyquinazoline] | not seen | –
– | COc1cccc(-c2cc(=O)c3ccccc3o2)c1N [PD98059, 2-(2′-amino-3′-methoxyphenyl)-oxanaphthalen-4-one] | causes shunting through this node | activation of ERK [4]: diminishing the activation of the next node along the pathway, ERK; phosphorylation of c-erbB1, MEK and ERK after EGF [5]: only ERK phosphorylation was effected
can be induced | EGF: recombinant epidermal growth factor, EGFR ligand used as stimulus | – | –

Compound | EGFR receptor phosphorylation [1] | shunting via the CREB node (relative expression of CREB) [4] | other results
CCCCC[C@H](O)/C=C/[C@H]1[C@H](O)CC(=O)[C@@H]1C/C=C\CCCC(=O)O [PGE2, prostaglandin E2] | can be induced | – | expression of COX-2 protein relative to β-actin [2]: induced increased expression of COX-2 protein; EGFR activation with or without TGF-α inhibitor pretreatment ([1]; harvested at 5 minutes, 100 ng/ml neutralizing TGF-α antibody 1 hour, FIG. 11): requirement of TGF-α for the activation of EGFR by PGE2
